Counter-ions that a name gives are not always drawn.
Legend:
[1] = In vitro stability in rat plasma (HPLC detection); assay type: in vitro ADME; details: 37° C.
Protocol: 1 mg of test compound is dissolved in 1.25 ml dimethylsulfoxide. Then 1.25 ml water are added. 0.5 ml of this sample solution are mixed with 0.5 ml heparinized and 37° C. warm plasma (wistar rat plasma or human plasma). A first sample (10 μl) is immediately taken for HPLC analysis. In the period up to 4 h after the start of incubation further 10 μl aliquots are taken after 30, 60, 90, 120 and 240 minutes and the amount of the test compound is determined.
Agilent 1100 with DAD (G1315A), binary pump (G1312A), autosampler (G1329A), column oven (G1316A), thermostat (G1330B); column: Kromasil 100 C18, 250 mm×4 mm, 5 μm; column temperature: 45° C.; eluent A: water+5 ml of perchloric acid/liter, eluent B: acetonitrile.

[2] = Stability in buffer at pH 7.4 (HPLC); assay type: physicochemical; details: buffer pH 7.4, 37° C.
Protocol: 0.3 mg of the test compound are solved in 0.1 ml dimethylsulfoxide and 0.4 ml acetonitrile. For complete dissolution the HPLC vial with the sample solution is sonified for about 20 seconds. Then 1.0 ml of the buffer solution is added, and the sample is again treated in the ultrasonic bath.
90 g of sodium chloride, 13.61 g of potassium dihydrogen phosphate and 83.35 g of 1 M sodium hydroxide solution are made up to 1 liter with Millipore water and then diluted 1:10.
10 μl portions of the sample solution are analysed by HPLC to determine the amount of the test compound over a period of 24 hours at 37° C. The peak areas in percentage are used for quantification.
Agilent 1100 with DAD (G1315B), binary pump (G1312A), autosampler (G1329A), column oven (G1316A), thermostat (G1330B); column: Kromasil 100 C18, 250 mm×4 mm, 5 μm; column temperature: 37° C.; eluent A: water+5 ml of perchloric acid/liter, eluent B: acetonitrile.
The ratio of the peak areas (F) at different time points in relation to the peak areas at the starting time are shown in Table 2 for representative examples: […]

[3] = Metabolic stability in vitro, rat liver microsomes (calculation of Fmax); assay type: in vitro ADME; details: comparison table with comparative examples
Protocol: The metabolic stability of test compounds in vitro was determined by incubating them at 1 μM with a suspension liver microsomes in 100 mM phosphate buffer, pH7.4 (NaH2PO4×H2O+Na2HPO4×2H2O) at a protein concentration of 0.5 mg/mL and at 37° C. The reaction was activated by adding a co-factor mix containing 1.2 mg NADP, 3 IU glucose-6-phosphate dehydrogenase, 14.6 mg glucose-6-phosphate and 4.9 mg MgCl2 in phosphate buffer, pH 7.4. Organic solvent in the incubations was limited to <0.2% dimethylsulfoxide (DMSO) and <1% methanol. During incubation, the microsomal suspensions were continuously shaken and aliquots were taken at 2, 8, 16, 30, 45 and 60 min, to which equal volumes of cold methanol were immediately added. Samples were frozen at −20° C. over night, subsequently centrifuged for 15 minutes at 3000 rpm and the supernatant was analyzed with an Agilent 1200 HPLC-system with LCMS/MS detection.
The half-life of a test compound was determined from the concentration-time plot. From the half-life the intrinsic clearances were calculated. Together with the additional parameters liver blood flow, specific liver weight and microsomal protein content the hepatic in vivo blood clearance (CL) and the maximal oral bioavailability (Fmax) were calculated for the different species. The following parameter values were used: Liver blood flow—1.3 L/h/kg (human), 2.1 L/h/kg (dog), 4.2 L/h/kg (rat); specific liver weight—21 g/kg (human), 39 g/kg (dog), 32 g/kg (rat); microsomal protein content—40 mg/g.
With the described assay only phase-I metabolism of microsomes is reflected, e.g. typically oxidoreductive reactions by cytochrome P450 enzymes and flavin mono-oxygenases (FMO) and hydrolytic reactions by esterases (esters and amides).

% Test Compound after 4 h [F(t = 24 h) × 100/F(t = 0 h)] ([1]; hydrochloride) [%]	% Test Compound after 24 h [F(t = 24 h) × 100/F(t = 0 h)] [2] [%]	% Test Compound after 4 h [F(t = 24 h) × 100/F(t = 0 h)] [1] [%]	Rat liver microsomes; Fmax [%] [3] [%]	SMILES
29	0.0	–	–	COc1cc(S(C)(=O)=O)ccc1N(C(=O)OC(C)OC(=O)[C@@H](N)C(C)(C)C)c1nc2ccc(-c3ccc(NC(=O)[C@H](C)c4ccc(F)cc4)cc3)cn2n1.Cl (single isomer, unassigned) [Example 3.4, (1S or 1R)-1-({[6-(4-{[(2R)-2-(4-fluorophenyl)propanoyl]amino}phenyl)[1,2,4]triazolo[1,5-α]pyridin-2-yl][2-methoxy-4-(methylsulfonyl)phenyl]carbamoyl}oxy)ethyl-3-methyl-L-valinate hydrochloride]
–	48	44	–	COc1cc(S(C)(=O)=O)ccc1N(C(=O)OC(OC(=O)[C@@H](N)C(C)C)C(C)C)c1nc2ccc(-c3ccc(NC(=O)[C@H](C)c4ccc(F)cc4)cc3)cn2n1 (single isomer, unassigned) [Example 5.2, (1R or S)-1-({[6-(4-{[(2R)-2-(4-fluorophenyl)propanoyl]amino}phenyl)[1,2,4]triazolo[1,5-α]pyridin-2-yl][2-methoxy-4-(methylsulfonyl)phenyl]carbamoyl}oxy)-2-methylpropyl-L-valinate hydrochloride]
–	0.0	0.0	–	COc1cc(S(C)(=O)=O)ccc1N(C(=O)OCOC(=O)[C@@H](N)C(C)C)c1nc2ccc(-c3ccc(NC(=O)[C@H](C)c4ccc(F)cc4)cc3)cn2n1 [Example 1.2, ({[6-(4-{[(2R)-2-(4-fluorophenyl)propanoyl]amino}phenyl)[1,2,4]triazolo[1,5-α]pyridin-2-yl][2-methoxy-4-(methylsulfonyl)phenyl]carbamoyl}oxy)methyl L-valinate hydrochloride]
–	0.0	14	–	CN[C@H](C(=O)OCOC(=O)N(c1nc2ccc(-c3ccc(NC(=O)[C@H](C)c4ccc(F)cc4)cc3)cn2n1)c1ccc(S(C)(=O)=O)cc1OC)C(C)C.Cl [Example 1.4, ({[6-(4-{[(2R)-2-(4-fluorophenyl)propanoyl]amino}phenyl)[1,2,4]triazolo[1,5-α]pyridin-2-yl][2-methoxy-4-(methylsulfonyl)phenyl]carbamoyl}oxy)methyl N-methyl-L-valinate hydrochloride]
–	0.0	0.0	–	COc1cc(S(C)(=O)=O)ccc1N(C(=O)OCOC(=O)[C@@H](N)C(C)(C)C)c1nc2ccc(-c3ccc(NC(=O)[C@H](C)c4ccc(F)cc4)cc3)cn2n1.Cl [Example 1.5, ({[6-(4-{[(2R)-2-(4-fluorophenyl)propanoyl]amino}phenyl)[1,2,4]triazolo[1,5-α]pyridin-2-yl][2-methoxy-4-(methylsulfonyl)phenyl]carbamoyl}oxy)methyl 3-methyl-L-valinate hydrochloride]
–	0.0	3	–	COc1cc(S(C)(=O)=O)ccc1N(C(=O)OCOC(=O)C(C)(C)CN)c1nc2ccc(-c3ccc(NC(=O)[C@H](C)c4ccc(F)cc4)cc3)cn2n1.O=C(O)C(F)(F)F [Example 1.8, ({[6-(4-{[(2R)-2-(4-fluorophenyl)propanoyl]amino}phenyl)[1,2,4]triazolo[1,5-α]pyridin-2-yl][2-methoxy-4-(methylsulfonyl)phenyl]carbamoyl}oxy)methyl 3-amino-2,2-dimethylpropanoate trifluoroacetate]
–	0.0	0.0	–	COc1cc(S(C)(=O)=O)ccc1N(C(=O)OCOC(=O)[C@@H](NC(=O)[C@@H](N)CCCCN)C(C)C)c1nc2ccc(-c3ccc(NC(=O)[C@H](C)c4ccc(F)cc4)cc3)cn2n1.Cl.Cl [Example 2.1, ({[6-(4-{[(2R)-2-(4-fluorophenyl)propanoyl]amino}phenyl)[1,2,4]triazolo[1,5-α]pyridin-2-yl][2-methoxy-4-(methylsulfonyl)phenyl]carbamoyl}oxy)methyl L-lysyl-L-valinate dihydrochloride]
–	16	37	–	COc1cc(S(C)(=O)=O)ccc1N(C(=O)OCOC(=O)[C@@H](NC(=O)[C@@H](N)C(C)C)C(C)C)c1nc2ccc(-c3ccc(NC(=O)[C@H](C)c4ccc(F)cc4)cc3)cn2n1 [Example 2.3, ({[6-(4-{[(2R)-2-(4-fluorophenyl)propanoyl]amino}phenyl)[1,2,4]triazolo[1,5-α]pyridin-2-yl][2-methoxy-4-(methylsulfonyl)phenyl]carbamoyl}oxy)methyl L-valyl-L-valinate hydrochloride]
–	23	12	–	CNCCCC(=O)N(c1nc2ccc(-c3ccc(NC(=O)[C@H](C)c4ccc(F)cc4)cc3)cn2n1)c1ccc(S(C)(=O)=O)cc1OC.O=C(O)C(F)(F)F [Example 4.1, N-[6-(4-{[(2R)-2-(4-fluorophenyl)propanoyl]amino}phenyl)[1,2,4]triazolo[1,5-α]pyridin-2-yl]-N-[2-methoxy-4-(methylsulfonyl)phenyl]-4-(methylamino)butanamide trifluoroacetate]
–	21	32	–	CNCCCC(=O)N(c1nc2ccc(-c3ccc(NC(=O)[C@H](C)c4ccc(F)cc4)cc3)cn2n1)c1ccc(S(C)(=O)=O)cc1OC.Cl [Example 4.1.1, N-[6-(4-{[(2R)-2-(4-fluorophenyl)propanoyl]amino}phenyl)[1,2,4]triazolo[1,5-α]pyridin-2-yl]-N-[2-methoxy-4-(methylsulfonyl)phenyl]-4-(methylamino)butanamide hydrochloride]
–	0.0	4	–	C[C@@H](C(=O)Nc1ccc(-c2ccc3nc(N(C(=O)OCOC(=O)[C@@H](N)C(C)(C)C)c4ccc(S(C)(=O)=O)cc4OCC(F)(F)F)nn3c2)cc1)c1ccc(F)cc1.Cl [Example 6.1, ({[6-(4-{[(2R)-2-(4-fluorophenyl)propanoyl]amino}phenyl)[1,2,4]triazolo[1,5-α]pyridin-2-yl][4-(methylsulfonyl)-2-(2,2,2-trifluoroethoxy)phenyl]carbamoyl}oxy)methyl 3-methyl-L-valinate hydrochloride]
–	0.0	0.0	–	C[C@@H](C(=O)Nc1ccc(-c2ccc3nc(N(C(=O)OCOC(=O)[C@@H](N)C(C)(C)C)c4ccc(C(=O)N5CC(F)C5)cc4OCC(F)(F)F)nn3c2)cc1)c1ccc(F)cc1.Cl [Example 6.3, [({4-[(3-fluoroazetidin-1-yl)carbonyl]-2-(2,2,2-trifluoroethoxy)phenyl}[6-(4-{[(2R)-2-(4-fluorophenyl)propanoyl]amino}phenyl)[1,2,4]triazolo[1,5-α]pyridin-2-yl]carbamoyl)oxy]methyl 3-methyl-L-valinate hydrochloride]
–	48	80	–	CNCCOC(=O)N(c1nc2ccc(-c3ccc(NC(=O)[C@H](C)c4ccc(F)cc4)cc3)cn2n1)c1ccc(S(C)(=O)=O)cc1OC.Cl [Example 7.1, 2-(methylamino)ethyl [6-(4-{[(2R)-2-(4-fluorophenyl)propanoyl]amino}phenyl)[1,2,4]triazolo[1,5-α]pyridin-2-yl][2-methoxy-4-(methylsulfonyl)phenyl]carbamate hydrochloride]
–	–	–	19	COC(C(=O)Nc1ccc(-c2ccc3nc(Nc4ccccc4C#N)nn3c2)cc1)c1ccccc1 (stereo not drawn) [reference compound]

From US9586958B2, “Prodrug derivatives of substituted triazolopyridines” (BAYER PHARMA AKTIENGESELLSCHAFT, priority 2013, dated 2017)
